In patent US9688676B2, “Tyrosine kinase inhibitors” (PRINCIPIA BIOPHARMA INC., priority 2015, dated 2017):
pIC50: −log10 of the molar value.

Columns and labels:
BTK [1] = target: T1, BTK (Homo sapiens (Human), UniProt Q06187); experiment: BTK enzymatic activity assay (Caliper-based kinase assay); assay type: biochemical; conditions: human recombinant BTK 0.5 nM, ATP 16 μM, 3 h room temperature
Description: A Caliper-based kinase assay (Caliper Life Sciences, Hopkinton, Mass.) was used to measure inhibition of BTK kinase activity of a compound of the present disclosure. […] The reaction was then terminated with EDTA, final concentration 20 mM and the phosphorylated reaction product was quantified on a Caliper Desktop Profiler (Caliper LabChip 3000). […] This value is presented as the IC50.

BTK [2] = target: T1, BTK; experiment: Determination of drug-kinase residence time (TR-FRET tracer competition, occupancy after washout); assay type: binding; conditions: 1.5 μM compound, 500 nM BTK; for % occupany at 1 h: 1 h of washout; for % occupany at 6 h: 6 h of washout; for % occupany at 24 h: 24 h of washout
Description: The experiment was conducted in a buffer consisting of 50 mM Hepes pH 7.5, 10 mM MgCl2, 0.01% Triton X-100, and 1 mM EGTA.
The mixture was then diluted 5-fold by addition of 40 μL of buffer. […] In order to probe for reversibility of the kinase-compound binding interaction, a competition solution containing both a high affinity fluorescent tracer and an antibody coupled to Europium was prepared. […] The competition solution also contained 80 nM of an Anti-polyhistidine antibody coupled to Europium (Invitrogen Cat. #PV5596) which is designed to bind the polyhistidine purification tag in BTK.
It is to be expected that covalent and slow dissociating inhibitors will block binding of the tracer while rapidly dissociating non-covalent inhibitors will not. […] Data were plotted at percentage of signal obtained in the absence of competitor compound. The background signal was obtained by omission of BTK from the reaction. […] If the compound is a reversible covalent inhibitor, the tracer will bind the target as the compound dissociates from the target.

T1 sequence (Q06187 whole entry): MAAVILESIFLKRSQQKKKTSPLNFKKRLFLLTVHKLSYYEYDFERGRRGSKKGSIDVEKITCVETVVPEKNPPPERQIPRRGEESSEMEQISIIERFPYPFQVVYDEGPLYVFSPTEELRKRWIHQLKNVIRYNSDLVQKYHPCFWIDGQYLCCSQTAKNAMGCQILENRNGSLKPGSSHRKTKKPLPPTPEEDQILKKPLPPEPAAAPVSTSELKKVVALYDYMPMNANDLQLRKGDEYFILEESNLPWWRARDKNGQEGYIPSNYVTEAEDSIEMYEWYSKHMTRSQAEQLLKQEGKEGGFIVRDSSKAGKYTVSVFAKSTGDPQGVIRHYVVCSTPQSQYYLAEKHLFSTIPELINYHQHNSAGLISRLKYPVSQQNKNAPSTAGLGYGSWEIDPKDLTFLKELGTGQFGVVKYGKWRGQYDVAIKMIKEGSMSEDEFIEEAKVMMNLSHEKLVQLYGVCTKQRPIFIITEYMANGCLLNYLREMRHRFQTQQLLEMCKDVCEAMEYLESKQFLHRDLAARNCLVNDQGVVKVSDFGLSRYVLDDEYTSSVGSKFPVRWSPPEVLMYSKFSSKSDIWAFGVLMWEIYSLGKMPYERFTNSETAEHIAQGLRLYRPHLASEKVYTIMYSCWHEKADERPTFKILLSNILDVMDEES

| SMILES | pIC50 (BTK [1]) | % occupany at 1 h (BTK [2]) [%] | % occupany at 6 h (BTK [2]) [%] | % occupany at 24 h (BTK [2]) [%] |
| --- | --- | --- | --- | --- |
| CC#CC(=O)N1CCC[C@@H](n2c(=O)n(-c3ccc(Oc4ccccc4)cc3)c3c(N)nccc32)C1 [Compound 17, (R)-4-amino-1-(1-(but-2-ynoyl)piperidin-3-yl)-3-(4-phenoxyphenyl)-1H-imidazo[4,5-c]pyridin-2(3H)-one] | 7.88 | 81.247 | 78.623 | 74.744 |
| CC(C)(C)C=C(C#N)C(=O)N1CCC[C@@H](n2c(=O)n(-c3ccc(Oc4ccccc4)cc3)c3c(N)nccc32)C1 [Compound 1, (R)-2-(3-(4-amino-2-oxo-3-(4-phenoxyphenyl)-2,3-dihydro-1H-imidazo[4,5-c]pyridin-1-yl)piperidine-1-carbonyl)-4,4-dimethylpent-2-enenitrile] | 8.09 | 97.036 | 82.199 | 70.975 |
| CC(C)(C=C(C#N)C(=O)N1CCC[C@@H](n2c(=O)n(-c3ccc(Oc4ccccc4)cc3)c3c(N)nccc32)C1)N1CCN(C2COC2)CC1 [Compound 5, (R)-2-(3-(4-amino-2-oxo-3-(4-phenoxyphenyl)-2,3-dihydro-1H-imidazo[4,5-c]pyridin-1-yl)piperidine-1-carbonyl)-4-methyl-4-(4-(oxetan-3-yl)piperazin-1-yl)pent-2-enenitrile] | 8.60 | 93.773 | 83.103 | 57.488 |
